Experimental data from US8962608B2, “Cycloalkylnitrile pyrazole carboxamides as janus kinase inhibitors” (Merck Sharp & Dohme Corp., priority 2011, dated 2015).

Key:
[1] = molecular target: JAK1 (recombinant purified GST-tagged catalytic domain) (Homo sapiens (Human), UniProt P23458); assay: biochemical;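 further: biochemical assay with HTRF read-out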
[2] = molecular target: JAK2 (recombinant purified GST-tagged catalytic domain) (Homo sapiens (Human), UniProt O60674); assay: biochemical;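 further: biochemical JAK kinase assay with HTRF detection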
Sequence of JAK2 (recombinant purified GST-tagged catalytic domain) (O60674 849-1124): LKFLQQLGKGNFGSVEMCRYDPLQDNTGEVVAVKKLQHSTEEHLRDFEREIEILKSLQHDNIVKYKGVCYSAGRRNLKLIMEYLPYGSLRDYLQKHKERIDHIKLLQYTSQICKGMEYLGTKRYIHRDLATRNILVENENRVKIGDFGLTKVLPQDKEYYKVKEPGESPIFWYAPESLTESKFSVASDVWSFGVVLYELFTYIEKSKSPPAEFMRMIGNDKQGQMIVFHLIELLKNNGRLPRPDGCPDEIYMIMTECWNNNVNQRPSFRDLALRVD

Sequence of JAK1 (recombinant purified GST-tagged catalytic domain) (P23458 875-1153): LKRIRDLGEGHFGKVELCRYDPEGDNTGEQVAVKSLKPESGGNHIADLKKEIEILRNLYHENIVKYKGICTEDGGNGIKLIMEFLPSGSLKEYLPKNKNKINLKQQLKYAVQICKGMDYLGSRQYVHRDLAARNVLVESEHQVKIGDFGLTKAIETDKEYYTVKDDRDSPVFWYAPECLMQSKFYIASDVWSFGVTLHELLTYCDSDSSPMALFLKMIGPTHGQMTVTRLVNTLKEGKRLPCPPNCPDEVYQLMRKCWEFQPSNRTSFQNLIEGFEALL

SMILES	IC50 [1]	IC50 [2]
CN[C@@H]1CCC(n2cc(C(N)=O)c(Nc3ccc(F)cc3)n2)[C@@H](C#N)C1 (mixture of isomers) [Example 27-3, 1-[(1S,2S,4R and 1R,2R,4S)-2-cyano-4-(methylamino)cyclohexyl]-3-[(4-fluorophenyl)amino]-1H-pyrazole-4-carboxamide]	0.8 nM	25 nM
N#C[C@H]1CCCC[C@@H]1n1cc(C(N)=O)c(Nc2cnc3cc(F)ccc3c2)n1 (single isomer, unassigned) [Example 17-41, 1-[(1S,2S or 1R,2R)-2-cyanocyclohexyl]-3-[(7-fluoroquinolin-3-yl)amino]-1H-pyrazole-4-carboxamide]	2 nM	16 nM
N#C[C@H]1CCCC[C@@H]1n1cc(C(N)=O)c(Nc2ccc(S(=O)(=O)NCc3ccccc3)cc2)n1 (single isomer, unassigned) [Example 17-83, 3-{[4-(benzylsulfamoyl)phenyl]amino}-1-[(1R,2R or 1S,2S)-2-cyanocyclohexyl]-1H-pyrazole-4-carboxamide]	0.2 nM	0.9 nM
N#C[C@H]1C[C@H](O)CC[C@@H]1n1cc(C(N)=O)c(Nc2ccccc2)n1 (single isomer, unassigned) [Example 25-29, 1-[(1S,2S,4R or 1R,2R,4S)-2-cyano-4-hydroxycyclohexyl]-3-(phenylamino)-1H-pyrazole-4-carboxamide]	2 nM	26 nM
COCCNS(=O)(=O)c1ccc(Nc2nn([C@H]3CCCC[C@@H]3C#N)cc2C(N)=O)cc1 (single isomer, unassigned) [Example 17-98, 1-[(1R,2R or 1S,2S)-2-cyanocyclohexyl]-3-({4-[(2-methoxyethyl)sulfamoyl]phenyl}amino)-1H-pyrazole-4-carboxamide]	0.25 nM	1 nM
N#C[C@H]1CCCC[C@@H]1n1cc(C(N)=O)c(Nc2ccc(S(=O)(=O)NCc3cccnc3)cc2)n1 (single isomer, unassigned) [Example 17-84, 1-[(1R,2R or 1S,2S)-2-cyanocyclohexyl]-3-({4-[(pyridin-3-ylmethyl)sulfamoyl]phenyl}amino)-1H-pyrazole-4-carboxamide]	0.3 nM	1 nM
N#C[C@H]1CC(NCC(F)F)CC[C@@H]1n1cc(C(N)=O)c(Nc2ccc(S(=O)(=O)C(F)F)cc2)n1 (single isomer, unassigned) [Example 28-122, 1-{(1S,2S or 1R,2R)-2-cyano-4-[(2,2-difluoroethyl)amino]cyclohexyl}-3-({4-[(difluoro-methyl)sulfonyl]phenyl}amino)-1H-pyrazole-4-carboxamide]	0.9 nM	6 nM
N#C[C@H]1CCCC[C@@H]1n1cc(C(N)=O)c(Nc2ccc(Cl)cc2)n1 (single isomer, unassigned) [Example 17-108, 3-[(4-chlorophenyl)amino]-1-[(1S,2S or 1R,2R)-2-cyanocyclohexyl]-1H-pyrazole-4-carboxamide]	8 nM	120 nM
COC(=O)c1cncc(Nc2nn([C@H]3CCCC[C@@H]3C#N)cc2C(N)=O)c1 (single isomer, unassigned) [Example 17-72, methyl 5-({4-carbamoyl-1-[(1R,2R or 1S,2S)-2-cyanocyclohexyl]-1H-pyrazol-3-yl}amino)pyridine-3-carboxylate]	12 nM	89 nM

More lines, now with the values ahead:

IC50 [1]	IC50 [2]	SMILES
2 nM	136 nM	N#C[C@@H]1C[C@@H](NC2CCC2)CC[C@H]1n1cc(C(N)=O)c(Nc2ccc(C(F)(F)F)cc2)n1 (single isomer, unassigned) [Example 30-18, 1-[(1R,2R,4S or 1S,2S,4R)-2-cyano-4-(cyclobutyl-amino)cyclohexyl]-3-{[4-(trifluoromethyl)phenyl]amino}-1H-pyrazole-4-carboxamide]
5 nM	35 nM	CC1(O)CN(C(=O)[C@@H]2CC[C@@H](n3cc(C(N)=O)c(Nc4ccc(Cl)cc4)n3)[C@H](C#N)C2)C1 (single isomer, unassigned) [Example 35-27, 3-[(4-chlorophenyl)amino]-1-{(1R,2R,4R or 1S,2S,4S)-2-cyano-4 [(3-hydroxy-3-methylazetidin-1-yl)carbonyl]cyclohexyl}-1H-pyrazole-4-carboxamide]
2 nM	242 nM	N#C[C@@H]1C[C@@H](NCC2CCC2)CC[C@H]1n1cc(C(N)=O)c(Nc2ccc(C(F)(F)F)cc2)n1 (single isomer, unassigned) [Example 30-16, 1-{(1R,2R,4S or 1S,2S,4R)-2-cyano-4-[(cyclobutyl-methyl)amino]cyclohexyl}-3-{[4-(trifluoro-methyl)phenyl]amino}-1H-pyrazole-4-carboxamide]
10 nM	111 nM	N#C[C@@H]1C[C@H](C(=O)N2CC3(COC3)C2)CC[C@H]1n1cc(C(N)=O)c(Nc2ccc(Cl)cc2)n1 (single isomer, unassigned) [Example 35-36, 3-[(4-chlorophenyl)amino]-1-[(1R,2R,4R or 1S,2S,4S)-2-cyano-4-(2-oxa-6-azaspiro[3.3]hept-6-ylcarbonyl)cyclohexyl]-1H-pyrazole-4-carboxamide]
4 nM	225 nM	N#C[C@H]1CC(NC(C2CC2)C2CC2)CC[C@@H]1n1cc(C(N)=O)c(Nc2ccc(S(=O)(=O)C(F)(F)F)cc2)n1 (single isomer, unassigned) [Example 28-164, 1-{(1S,2S,4R or 1R,2R,4S)-2-cyano-4-[(dicyclo-propylmethyl)amino]cyclohexyl}-3-({4-[(trifluoro-methyl)sulfonyl]phenyl}amino)-1H-pyrazole-4-carboxamide]
3 nM	38 nM	N#C[C@@H]1C[C@H](C(=O)NCC(F)(F)F)CCC1n1cc(C(N)=O)c(Nc2ccc(Cl)cc2)n1 (single isomer, unassigned) [Example 35-10, 3-[(4-chlorophenyl)amino]-1-{(1R,2R,4R or 1S,2S,4S)-2-cyano-4-[(2,2,2-trifluoroethyl)carbamoyl]cyclohexyl}-1H-pyrazole-4-carboxamide]
0.9 nM	104 nM	C[C@H](NC1CC[C@H](n2cc(C(N)=O)c(Nc3ccc(C(F)(F)F)cc3)n2)[C@@H](C#N)C1)C1CC1 (single isomer, unassigned) [Example 28-191, 1-[(1S,2S or 1R,2R)-2-cyano-4-{[(1S)-1-cyclopropylethyl]amino}cyclo-hexyl]-3-{[4-(trifluoromethyl)phenyl]amino}-1H-pyrazole-4-carboxamide]
4 nM	216 nM	C[C@H](N[C@@H]1CC[C@H](n2cc(C(N)=O)c(Nc3ccc(Cl)cc3)n2)[C@@H](C#N)C1)C1CC1 (single isomer, unassigned) [Example 28-98, 3-[(4-chlorophenyl)amino]-1-[(1S,2S,4R or 1R,2R,4S)-2-cyano-4-{[(1S)-1-cyclopropylethyl]amino}cyclo-hexyl]-1H-pyrazole-4-carboxamide]
1 nM	61 nM	CC1CN([C@H]2CC[C@H](n3cc(C(N)=O)c(Nc4ccc(C(F)(F)F)cc4)n3)[C@@H](C#N)C2)C1 (single isomer, unassigned) [Example 28-121, 1-[(1S,2S,4S or 1R,2R,4R)-2-cyano-4-(3-methylazetidin-1-yl)cyclohexyl]-3-{[4-(trifluoromethyl)phenyl]amino}-1H-pyrazole-4-carboxamide]
